Test results reported in patent publication US7498336B2, “Deazaflavin compounds and methods of use thereof” (The United States of America as represented by the …, priority 2003, dated 2009).

How the values were obtained:
[1] = system: Normal human fibroblast MRC-5; test: Cell based assay for accumulation of MDM2 and p53 (immunoblot); conditions: MRC-5 cells, 50 μM, 8 hours
Procedure: Methods: Normal human fibroblast MRC-5 were chosen to determine whether the compounds from the high throughput screening can inhibit the E3 activity of Mdm2, i.e. stabilizing MDM2 and p53 in vivo. After being seeded in 12-well tissue culture cluster overnight, the cells were treated with 50 μM of the compounds for 8 hours. They were harvested with trypsin-EDTA, washed with PBS, and lysed with RIPA buffer. Following removal of insoluble pellet by centrifugation for 20 minutes at 10000 rpm, the lysate was separated on 4-20% gradient SDS-polyacrylamide gel and transferred onto nitrocellulose membrane. The membrane was then blotted with anti-p53 antibody (DO-1), anti-MDM2 antibodies (Ab-1 and Ab-2), anti-p27 (Santa Cruz), anti-Nedd4, and anti-p21Waf1 antibody. After extensive washing with PBS containing 0.5% Triton X-100, it was incubated with HRP-labeled donkey anti-mouse antibody and visualized using enhanced chemiluminescence.

[2] = system: E1A-transformed RPE cells; test: Apoptosis in E1A-transformed RPE cells; format: cell-based, human; conditions: FIG. 4 left
Excerpt: Cell-based assays include model systems where primary human epithelial cells (“normal cells”) are compared to the same cells expressing the adenovirus E1A oncogene (“transformed cells”). Activation of p53 was not toxic to normal cells, but activation of p53 in transformed cells induces p53-mediated apoptosis. High concentrations of wild type (wt) p53 protein can induce apoptosis in a variety of different tumor cells. Potential inhibitors of MDM2 would regulate the stability and function of p53 and MDM2. Preferably the assays measure number of cells undergoing apoptosis due to MDM2 induced p53 degradation in tumor cells in the presence or absence of candidate compounds as compared to normal cells in the presence or absence of candidate compounds. An increase in the number of these cells undergoing apoptosis in the presence of candidate compounds in tumor cells, as compared to normal untreated cells is indicative of a potential anti-tumor compound. […]
Apoptosis and cell death were determined by FACS analysis of sub-G1 nuclei or counting trypan blue-positive cells under microscope. Caspase activity was measured using fluorogenic substrate Ac-DEVD-AFC and CytoFluor multi-well plate reader (PerSeptive Biosystems). […]

Compound: COc1cccc2c1C(=O)c1c(O)c3c(c(O)c1C2=O)C[C@@](O)(C(=O)CO)C[C@@H]3O[C@H]1C[C@H](N)[C@H](O)[C@H](C)O1 [adriamycin, reference compound]
- p53 level [1]: increased only p53
- apoptosis [2]: markedly increased apoptosis
